IC50 data for 17 compounds are collected here from patent publication US20230066011A1, “PYRROLOPYRIMIDINE DERIVATIVE, AND PHARMACEUTICAL COMPOSITION FOR PREVENTING OR TREATING PROTEIN KINASE-RELATED DISEASE COMPRISING SAME AS ACTIVE INGREDIENT” (VORONOI CO., LTD., priority 2019, published 2023).

Type in all cases: biochemical
In assay [1] the target is T1, human GST-DYRK1A (Homo sapiens, UniProt Q13627).
T1 construct: purified human GST-DYRK1A (full length, Thermo Scientifics) enzyme; purchased Thermo Scientifics
Nature of the assay: GST-DYRK1A enzyme inhibition, ADP-Glo kinase assay. Particulars: ATP 10 μM, GST-DYRK1A full length, read-out: DYRK1 IC50. Summed up: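 Full-length human GST-DYRK1A (10 ng) with 10 μM ATP and specific substrate in 40 mM Tris-HCl pH 7.4, 20 mM MgCl2, 0.5 mg/mL BSA, 50 μM DTT, 1 h at 25 °C. ADP formation read by ADP-Glo luminescence relative to solvent control; IC50 from three data sets.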
(ADP-Glo turns the ADP formed in a reaction into a luminescent signal.)

Assay [2] deals with LRRK2 (G2019S) (Homo sapiens, UniProt Q5S007, G2019S). Nature of the assay: LRRK2 G2019S enzyme inhibition, ADP-Glo kinase assay. Also on record: purchased SignalChem L10-12GG. Particulars: ATP 25 μM. An outline of the steps:
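Purified human LRRK2 G2019S (16 ng) with 25 μM ATP and 0.2 μg substrate, 2 h at 25° C. in Tris-HCl pH 7.4, MgCl2, BSA, DTT buffer; compounds at 12 final concentrations, 50 μM down to 0.000001024 μM. ADP-Glo luminescence versus solvent control gave IC50.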

The target of assay [3] is LRRK2 (Homo sapiens, UniProt Q5S007). Nature of the assay: LRRK2 enzyme inhibition, ADP-Glo kinase assay. Also on record: purchased Invitrogen PR8604B. Particulars: ATP 10 μM. Here is the method: To evaluate an inhibitory activity of the compound according to the present invention against LRRK2, LRRK2 (G2019S), DYRK1, CLK1, and TTK kinases, experiments were performed as follows.
Each of the Example compounds was reacted with a purified human LRRK2 (Invitrogen #PR8604B) enzyme to evaluate an ability to inhibit an enzyme using a method as described below. A composition of 40 mM Tris-HCl (pH 7.4), 20 mM MgCl2, 0.5 mg/mL BSA, and 50 μM DTT was used as a reaction buffer, and all reactions of test substances were performed in the reaction buffer. Each of the compounds was diluted […] from a 10 mM DMSO stock using a serial dilution method, and enzyme activities were measured at final compound concentrations of 50, 10, 2, 0.4, 0.08, 0.016, 0.0032, 0.00064, 0.000128, 0.0000256, 0.00000512, and 0.000001024 μM. In the test, purified ATP (10 μM) and an enzyme substrate (0.2 μg) were reacted with a human LRRK2 (25 ng) enzyme at 25° C. for 2 hours, and the enzyme activities were determined using an in vitro ADP-Glo™ kinase assay (Promega). An enzyme-activity reaction solution, an ADP-Glo reaction solution, and an enzyme-ability detection solution were reacted at a ratio of 2:2:1 to measure a degree of inhibition of the enzyme activity with luminescence. The degree of inhibition of the enzyme activity according to the treatment concentration of each of the compounds was calculated based on the fluorescence of the enzyme activity of the solvent control which was not treated with the compound. In this case, the concentration of each of the compounds inhibiting 50% of the enzyme activity was determined to be an IC50 (nM) value, and calculated using Prism (Version 5.01; GraphPad) software.

The target of assay [4] is T2, human GST-CLK1 (Homo sapiens, UniProt P49759).
T2 construct: purified human GST-CLK1 (129-end, SignalChem) enzyme; purchased SignalChem
As to the kind of experiment: GST-CLK1 enzyme inhibition, ADP-Glo kinase assay. The following applies: ATP 10 μM, GST-CLK1 129-end. An outline of the steps:
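Human GST-CLK1 (129-end, 3 ng) reacted with substrate and 10 μM ATP for 1 h at 25° C in 40 mM Tris-HCl pH 7.4, 20 mM MgCl2, 0.5 mg/mL BSA, 50 μM DTT. ADP-Glo luminescence was normalised to solvent control; IC50 (nM) from 3 data sets.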

LRRK2 (G2019S), sequence (Q5S007 970-2527 G2019S limits assumed): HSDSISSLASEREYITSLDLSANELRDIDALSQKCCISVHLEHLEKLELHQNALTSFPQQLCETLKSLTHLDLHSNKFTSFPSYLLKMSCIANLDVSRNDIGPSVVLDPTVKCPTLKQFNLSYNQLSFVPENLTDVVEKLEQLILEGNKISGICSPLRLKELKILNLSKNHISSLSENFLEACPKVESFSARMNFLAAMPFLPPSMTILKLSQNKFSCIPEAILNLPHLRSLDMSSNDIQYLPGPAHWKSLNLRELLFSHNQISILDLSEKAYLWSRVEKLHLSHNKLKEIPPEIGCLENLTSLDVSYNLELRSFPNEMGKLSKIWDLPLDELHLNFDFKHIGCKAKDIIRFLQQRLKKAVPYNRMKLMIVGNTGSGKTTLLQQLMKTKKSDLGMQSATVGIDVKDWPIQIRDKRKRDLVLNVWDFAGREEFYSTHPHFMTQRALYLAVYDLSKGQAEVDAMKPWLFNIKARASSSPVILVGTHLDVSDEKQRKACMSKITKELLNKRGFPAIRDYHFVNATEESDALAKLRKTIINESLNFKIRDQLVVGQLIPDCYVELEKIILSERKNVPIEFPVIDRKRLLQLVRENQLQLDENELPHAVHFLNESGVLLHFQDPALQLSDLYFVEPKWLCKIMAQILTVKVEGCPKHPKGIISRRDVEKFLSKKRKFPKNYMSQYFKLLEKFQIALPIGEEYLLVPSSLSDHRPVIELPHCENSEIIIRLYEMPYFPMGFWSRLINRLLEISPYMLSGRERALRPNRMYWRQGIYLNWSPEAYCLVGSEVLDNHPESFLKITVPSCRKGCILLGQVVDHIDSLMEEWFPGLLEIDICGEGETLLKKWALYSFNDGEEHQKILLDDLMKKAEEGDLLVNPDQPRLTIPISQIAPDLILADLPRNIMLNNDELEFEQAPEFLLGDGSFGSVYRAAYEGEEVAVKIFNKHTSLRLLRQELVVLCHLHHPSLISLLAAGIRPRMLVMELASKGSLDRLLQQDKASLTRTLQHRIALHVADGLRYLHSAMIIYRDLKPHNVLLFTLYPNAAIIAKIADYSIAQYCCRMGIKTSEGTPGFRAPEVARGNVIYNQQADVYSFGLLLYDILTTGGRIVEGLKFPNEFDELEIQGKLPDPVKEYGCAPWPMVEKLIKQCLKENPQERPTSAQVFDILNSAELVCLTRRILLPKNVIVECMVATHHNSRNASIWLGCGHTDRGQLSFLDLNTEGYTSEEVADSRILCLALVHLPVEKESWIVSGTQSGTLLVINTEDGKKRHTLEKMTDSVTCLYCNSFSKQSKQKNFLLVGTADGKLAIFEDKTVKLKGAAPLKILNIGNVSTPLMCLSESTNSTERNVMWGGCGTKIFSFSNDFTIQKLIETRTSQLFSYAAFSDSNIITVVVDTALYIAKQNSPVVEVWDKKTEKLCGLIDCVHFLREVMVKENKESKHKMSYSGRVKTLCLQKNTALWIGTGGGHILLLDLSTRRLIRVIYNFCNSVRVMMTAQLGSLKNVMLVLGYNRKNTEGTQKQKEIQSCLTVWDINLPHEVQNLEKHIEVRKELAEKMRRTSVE
LRRK2, sequence (Q5S007 970-2527 limits assumed): as the sequence (Q5S007 970-2527 G2019S limits assumed) above, with S1050G counted along it
T2 sequence (P49759 129-484 limits assumed): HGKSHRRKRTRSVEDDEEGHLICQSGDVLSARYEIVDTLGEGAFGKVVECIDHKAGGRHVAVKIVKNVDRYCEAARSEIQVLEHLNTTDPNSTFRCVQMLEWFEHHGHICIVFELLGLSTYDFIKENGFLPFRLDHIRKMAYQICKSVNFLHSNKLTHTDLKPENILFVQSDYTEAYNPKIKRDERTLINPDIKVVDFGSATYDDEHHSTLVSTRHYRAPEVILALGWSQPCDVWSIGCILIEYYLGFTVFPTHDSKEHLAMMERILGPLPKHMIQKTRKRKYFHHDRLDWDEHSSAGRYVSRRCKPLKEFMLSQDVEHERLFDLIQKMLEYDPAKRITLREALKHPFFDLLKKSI

For `COCCNc1nc(Nc2ccc(S(=O)(=O)N3CCOCC3)cc2OC)nc2[nH]ccc12` [Example 19, N^2-(2-methoxy-4-(morpholinosulfonyl)phenyl)-N^4-(2-methoxyethyl)-7H-pyrrolo[2,3-d]pyrimidine-2,4-diamine], the IC50 in assay [1] is 301 to 1000 nM; in assay [2], below 100 nM; in assay [3] it was below 100 nM; in assay [4] it was 301 to 1000 nM.

For `CNc1nc(Nc2ccc(C(=O)N3CCOCC3)c3c2OCCO3)nc2[nH]ccc12` [Example 43, (8-((4-(methylamino)-7H-pyrrolo[2,3-d]pyrimidin-2-yl)amino)-2,3-dihydrobenzo[b][1,4]dioxin-5-yl)(morpholino)methanone], the IC50 is 301 to 1000 nM in assay [1], below 100 nM in assay [2], below 100 nM in assay [3] and 301 to 1000 nM in assay [4].

Turning to `CCNc1nc(Nc2ccc(C(=O)N3CCOCC3)c3c2OCCO3)nc2[nH]ccc12` [Example 58, (8-((4-(ethylamino)-7H-pyrrolo[2,3-d]pyrimidin-2-yl)amino)-2,3-dihydrobenzo[b][1,4]dioxin-5-yl)(morpholino)methanone 2,2,2-trifluoroacetate], the IC50 in assay [1] is 301 to 1000 nM; in assay [2], below 100 nM; in assay [3] it was below 100 nM; in assay [4], 301 to 1000 nM.

With `CNc1nc(Nc2ccc(S(=O)(=O)N3CCC(N4CCOCC4)CC3)cc2OC)nc2[nH]cc(C#N)c12` [Example 81, 2-((2-methoxy-4-((4-morpholinopiperidin-1-yl)sulfonyl)phenyl)amino)-4-(methylamino)-7H-pyrrolo[2,3-d]pyrimidine-5-carbonitrile], the IC50 was 301 to 1000 nM in assay [1], below 100 nM in assay [2], below 100 nM in assay [3] and below 100 nM in assay [4].

Regarding `COc1cc(S(=O)(=O)N2CCC(N3CCOCC3)CC2)ccc1Nc1nc(NCCS(C)(=O)=O)c2c(C#N)c[nH]c2n1` [Example 96, 2-((2-methoxy-4-((4-morpholinopiperidin-1-yl)sulfonyl)phenyl)amino)-4-((2-(methylsulfonyl)ethyl)amino)-7H-pyrrolo[2,3-d]pyrimidine-5-carbonitrile], the IC50 in assay [1] is 301 to 1000 nM; in assay [2], below 100 nM; in assay [3] it was below 100 nM; in assay [4], below 100 nM.

For the compound `CCNc1nc(Nc2ccc(S(C)(=O)=O)cc2OC)nc2[nH]cc(C#N)c12` [Example 98, 4-(ethylamino)-2-((2-methoxy-4-(methylsulfonyl)phenyl)amino)-7H-pyrrolo[2,3-d]pyrimidine-5-carbonitrile], the IC50 in assay [1] is 301 to 1000 nM; in assay [2], below 100 nM; in assay [3], below 100 nM; in assay [4] it was 301 to 1000 nM.

For the compound `CCNc1nc(Nc2ccc(P3(=O)CCN(CC)CC3)cc2OC)nc2[nH]cc(C#N)c12` [Example 260, 2-((4-(1-ethyl-4-oxido-1,4-azaphosphinan-4-yl)-2-methoxyphenyl)amino)-4-(ethylamino)-7H-pyrrolo[2,3-d]pyrimidine-5-carbonitrile], the values for the half-inhibitory concentration (IC50) in assay [1], in assay [3] and in assay [4] were 101 to 300 nM, below 100 nM and 101 to 300 nM, respectively.

Turning to `CCNc1nc(Nc2ccc(C(=O)N3CCOCC3)c3c2OCO3)nc2[nH]cc(C#N)c12` [Example 277, 4-(ethylamino)-2-((7-(morpholine-4-carbonyl)benzo[d][1,3]dioxol-4-yl)amino)-7H-pyrrolo[2,3-d]pyrimidine-5-carbonitrile], the IC50 in assay [1] was 301 to 1000 nM; in assay [3], below 100 nM; in assay [4] it was 301 to 1000 nM.

For the compound `CCNc1nc(Nc2ccc(P3(=O)CCN(C4COC4)CC3)cc2OC)nc2[nH]cc(C(F)(F)F)c12` [Example 399, 4-(4-((4-(ethylamino)-5-(trifluoromethyl)-7H-pyrrolo[2,3-d]pyrimidin-2-yl)amino)-3-methoxyphenyl)-1-(oxetan-3-yl)-1,4-azaphosphinane 4-oxide], the IC50 in assay [1], in assay [3] and in assay [4] was below 100 nM in each case.

As to `CCCNc1nc(Nc2ccc(P3(=O)CCN(C4CC4)CC3)cc2OC)nc2[nH]cc(C(F)(F)F)c12` [Example 401, 1-cyclopropyl-4-(3-methoxy-4-((4-(propylamino)-5-(trifluoromethyl)-7H-pyrrolo[2,3-d]pyrimidin-2-yl)amino)phenyl)-1,4-azaphosphinane 4-oxide], the IC50 in assay [1] is 301 to 1000 nM; in assay [3], below 100 nM; in assay [4], 101 to 300 nM.

As to `COc1cc(P2(=O)CCN(C3CC3)CC2)ccc1Nc1nc(NC2CC2)c2c(C(F)(F)F)c[nH]c2n1` [Example 404, 1-cyclopropyl-4-(4-((4-(cyclo-propylamino) 5-(trifluoromethyl)-7H-pyrrolo[2,3-d]pyrimidin-2-yl)amino)3-methoxyphenyl)-1,4-azaphosphinane 4-oxide], the IC50 in assay [1], in assay [3] and in assay [4] was below 100 nM each time.

Consider `CCNc1nc(Nc2ccc(C(=O)N3C[C@@H]4C[C@H]3CO4)c3c2OCCO3)nc2[nH]cc(C(F)(F)F)c12` [Example 409], for which the IC50 in assay [1], in assay [3] and in assay [4] was below 100 nM each time.

`O=C(c1ccc(Nc2nc(NCC3CCC3)c3c(C(F)(F)F)c[nH]c3n2)c2c1OCCO2)N1CCN(C2COC2)CC1` [Example 424, (8-((4-((cyclo-butylmethyl)amino)-5-(trifluoromethyl)-7H-pyrrolo[2,3-d]pyrimidin-2-yl)amino)-2,3-dihydrobenzo[b] [1,4]dioxin-5-yl) (4-(oxetan-3-yl)piperazin-1-yl)methanone]: the figures for the IC50 in assay [1], in assay [3] and in assay [4] were 301 to 1000 nM, below 100 nM and 301 to 1000 nM, respectively.

With `CNc1nc(Nc2ccc(P3(=O)CCN(C4CCOCC4)CC3)cc2OC)nc2[nH]cc(C(F)(F)F)c12` [Example 436, 4-(3-methoxy-4-((4-(methylamino)-5-(trifluoromethyl)-7H-pyrrolo[2,3-d]pyrimidin-2-yl)amino)phenyl)-1-(tetrahydro-2H-pyran-4-yl)-1,4-azaphosphinane 4-oxide], the IC50 in assay [1], in assay [3] and in assay [4] was below 100 nM in each case.

With `CC[C@H](C)Nc1nc(Nc2ccc(C(=O)N3CCC(N4CCOCC4)CC3)c3c2OCC3)nc2[nH]cc(C(F)(F)F)c12` [Example 452, (S)-(7-((4-(sec-butylamino)-5-(trifluoromethyl)-7H-pyrrolo[2,3-d]pyrimidin-2-yl)amino)-2,3-dihydrobenzo-furan-4-yl)(4-morpho-linopiperidin-1-yl)methanone], the results for the IC50 in assay [1], in assay [3] and in assay [4] were 101 to 300 nM, below 100 nM and below 100 nM, respectively.

In the case of `O=C(c1ccc(Nc2nc(NC3CCCCC3)c3c(C(F)(F)F)c[nH]c3n2)c2c1CCO2)N1CCC(N2CCOCC2)CC1` [Example 460, (7-((4-(cyclo-hexylamino)-5-(trifluoromethyl)-7H-pyrrolo[2,3-d]pyrimidin-2-yl)amino)-2,3-dihydrobenzo-furan-4-yl)(4-morpho-linopiperidin-1-yl)methanone], the IC50 in assay [1] is 301 to 1000 nM; in assay [3] it was below 100 nM; in assay [4], 301 to 1000 nM.

Turning to `C=CCNc1nc(Nc2ccc(S(=O)(=O)N3CCOCC3)cc2OC)nc2[nH]cc(C(F)(F)F)c12` [Example 474, N^4-allyl-N^2-(2-methoxy-4-(morpholino-sulfonyl)phenyl)-5-(trifluoromethyl)-7H-pyrrolo[2,3-d]pyrimidine-2,4-diamine], the IC50 in assay [1], in assay [3] and in assay [4] was 301 to 1000 nM each time.

What is called IC50 is the concentration that inhibits the measured activity by half.
